The test system of assay [1] is male ICR mice. In words: Hot plate test, analgesic efficacy (central nervous system). The format is in vivo, mouse. Particulars: G2, 60 mg/kg oral. The protocol: The experimental method used in this example is an analgesic efficacy experiment method using a hot plate test described in the “Guidelines for efficacy test of herbal preparations—General efficacy tests for painful diseases” announced by the Ministry of Food and Drug Safety, wherein the analgesic effect in the central nervous system of a mouse is measured with a response time to a heat stimulus as an index through a hot plate. At this time, the response time to the heat stimulus is measured as a time elapsed until the experimental animal licks the paw or jumps.
1) Celebrex (Celecoxib, Pfizer, 200 mg), Saline (Chungwae Pharmaceutical), Chrysanthemum extract (Green Cross HS) and male ICR mice (6 weeks old, weight 30-35 g, Orient Bio) were prepared. In this example, the Chrysanthemum extract was extracted by the organic solvent extraction method described in the above preparative example wherein it was extracted using 70% ethanol.
2) 60 mg/kg of Celebrex and 50, 100 and 200 mg/kg of Chrysanthemum extracts were prepared and orally administered to ICR mice, respectively. At this time, Celebrex is converted into administration concentration and suspended in saline while vortexing, and Chrysanthemum extract is suspended in 0.5% CMC and sonicated at 20 to 25° C. for about 10 minutes.
According to the efficacy experimental method using the hot plate test method, as the experimental animals, 5-week-old male ICR mice were purchased, acclimatized for 1 week, and then tested. The hot plate was maintained at 55° C., and drug administration was performed 30 minutes before this method. The central pain response due to heat was measured with an index, i.e., the time elapsed until the mouse licks the hind paw or jumps starting from contacting with the hot plate.
Then, the pain response due to heat was measured with an index, i.e., the time elapsed until the mouse licks the hind paw or jumps starting from contacting with the hot plate.
On the technique in general: Hot-plate and tail-flick tests time the reaction to a heat stimulus.

Assay [2] relates to male ICR mice. The assay can be described thus: Acetic acid writhing test, analgesic efficacy (peripheral nerves). The assay is classed as in vivo, mouse. Conditions: G2, 60 mg/kg oral. As to the method:
The experimental method used in this example is the “Acetic acid writhing test” described in the “Guidelines for efficacy test of herbal preparations—General efficacy tests for painful diseases” announced by the Ministry of Food and Drug Safety, wherein acetic acid is administered intraperitoneally to cause damage of capillaries and pain in the abdominal cavity, and the analgesic effect in peripheral nerves is measured using the abdominal contractile response as an index.
1) Celebrex (Celecoxib, Pfizer, 200 mg), acetic acid (Daejunghwageum), Saline (Chungwae Pharmaceutical), Chrysanthemum extract (Green Cross HS) and male ICR mice (5 weeks old, Orient Bio) were prepared. In this example, the Chrysanthemum extract was extracted by the organic solvent extraction method described in the above preparative example wherein it was extracted using 70% ethanol.
2) 60 mg/kg of Celebrex and 50, 100 and 200 mg/kg of Chrysanthemum extracts were prepared and orally administered to ICR mice. At this time, Celebrex is converted into administration concentration and suspended in saline while vortexing, and Chrysanthemum extract is suspended in 0.5% CMC and sonicated at 20 to 25° C. for about 10 minutes.
For the experimental method for analgesic effects to the acetic acid writhing test, as the experimental animals, 4-week-old male ICR mice were purchased, acclimatized for 1 week, and then tested. The Chrysanthemum extract and control drug, respectively, were orally administered to mice by dose, followed by intraperitoneal injection of acetic acid (0.7% acetic acid-physiological saline (0.1 ml/10 g B.W.)) 30 minutes after administration. Subsequently, from 5 minutes after injection, the number of occurrences of writhing was measured for 10 minutes (FIG. 3).
Subsequently, from 5 minutes after the intraperitoneal administration, the number of occurrences of writhing syndrome was counted for 10 minutes and results thereof are shown in FIG. 10 and Table 14.
On the technique in general: Writhing tests count abdominal constrictions after an irritant is injected.

“And” between values parts separate entries of the source, which are not always exact repeats. Equal entries are not always repeated.

Broadly, the inhibition is the change of the read-out against control, counted positive when it falls. On to `Cc1ccc(-c2cc(C(F)(F)F)nn2-c2ccc(S(N)(=O)=O)cc2)cc1` [Celecoxib], for which the “Response time, % of control (increase rate)” value in assay [1] is 53.9%. For the same molecule, the “Response time, individual mouse” value in assay [1] (hot plate 55° C., mice 1-8) is 26.94 s and 27.82 s and 35.55 s and 36.22 s and 28.54 s and 33.71 s and 32.71 s and 25.61 s. Further, the “Response time, mean” value in assay [1] (n=8, control mean 20.07) was determined as 30.89 s. For the same molecule, the “Writhing syndrome/10 min, individual mouse” value in assay [2] (0.7% acetic acid i.p. 30 minutes after administration, mice 1-6) was 9.00 /10 min and 6.00 /10 min and 15.00 /10 min and 14.00 /10 min and 25.00 /10 min and 18.00 /10 min. Besides, the “Writhing syndrome/10 min, mean” value in assay [2] (n=6, control mean 28.33) is on record as 14.50 /10 min. Also, in assay [2] (Mus musculus, read-out: Writhing syndrome, % of control (inhibition rate, reduction compared to control)), the inhibition at 60 mg/kg was found to be 48.9%.

(Values after patent US20240293490A1, “CHRYSANTHEMUM ZAWADSKII EXTRACT AND PREPARING METHOD THEREOF” (GREEN CROSS WELLBEING CORPORATION, priority 2023, published 2024).)
